{"source": "patent US6184217A", "about": "(Cephalon, Inc., priority 1997, dated 2001)", "key": {"monoamine oxidase-A": {"target": "monoamine oxidase-A (Homo sapiens, UniProt P21397)", "sequence (P21397 whole entry)": "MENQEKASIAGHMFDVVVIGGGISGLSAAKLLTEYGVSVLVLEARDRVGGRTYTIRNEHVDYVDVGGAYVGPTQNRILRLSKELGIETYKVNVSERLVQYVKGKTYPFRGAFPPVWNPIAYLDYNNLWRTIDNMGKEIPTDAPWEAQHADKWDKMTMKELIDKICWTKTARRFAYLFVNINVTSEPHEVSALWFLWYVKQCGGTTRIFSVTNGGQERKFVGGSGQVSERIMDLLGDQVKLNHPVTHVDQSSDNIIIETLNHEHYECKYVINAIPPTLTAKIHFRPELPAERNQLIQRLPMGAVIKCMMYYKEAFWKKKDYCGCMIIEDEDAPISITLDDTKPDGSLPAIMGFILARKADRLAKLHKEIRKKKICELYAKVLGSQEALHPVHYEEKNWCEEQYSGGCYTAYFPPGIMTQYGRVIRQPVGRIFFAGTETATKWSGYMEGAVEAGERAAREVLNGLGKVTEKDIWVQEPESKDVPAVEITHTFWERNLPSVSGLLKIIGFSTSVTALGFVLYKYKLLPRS", "experiment": "Monoamine oxidase-A inhibition in vitro", "type": "biochemical", "details": "FIG. 1"}, "[1]": {"tested_on": "GABA-ergic neurons in the nucleus basalis magnocellularis", "experiment": "Ibotenic acid lesion: glutamic acid decarboxylase-expressing (GABA-ergic) neurons in nbm", "type": "in vivo, Sprague-Dawley rats", "experimental": "Compound A was tested for its ability to prevent depletion (e.g., enhance the survival) of GABA-ergic neurons in the nucleus basalis magnocellularis, using the well-established ibotenic acid lesion mode. Ibotenic acid, an excitotoxin, is known to reduce numbers of GABA-expressing neurons in the nbm region (Lindefors et al., Neurosci. Lett., 135:262-264, 1992; Shaugnessy et al., Brain Res., 637:15-26, 1994). […] The rats were then dosed with Compound A (0.03 mg/kg) via subcutaneous injection beginning 18 hours after the lesion, and continuing q.o.d. until 18 days post-lesion. […] The numbers of neurons expressing glutamic acid decarboxylase were then counted throughout the rostral-caudal extent of the nucleus basalis magnocellularis, in a region where glutamic acid decarboxylase-expressing neurons of the nbm are easily distinguished from glutamic acid decarboxylase-expressing neurons in adjacent structures (white matter medial and ventral to the globus pallidus). The results were expressed as percent glutamic acid decarboxylase-expressing neurons on the lesioned side relative to the number on the opposite, unlesioned side. The results were also calculated separately for the rostral nbm, mid-nmb, and caudal nbm."}, "[2]": {"tested_on": "glutamatergic neurons in layer 2 of the entorhinal cortex", "experiment": "NMDA entorhinal cortex lesion model", "type": "in vivo, rats", "details": "1 mg/kg s.c. daily, p<0.05", "excerpt": "Glutamate-containing neurons in layer 2 of the entorhinal cortex project to the molecular layer of the dentate gyrus, where they form synapses on the dendrites of the dentate gyrus granule cells. A lesion can be created in layer 2 of entorhinal cortex by stereotaxic injection of the excitotoxin N-methyl-D-asparate (NMDA). Under sodium pentobarbitol anesthesia, rats received an injection of NMDA (15 nmols/site) at each of 2 sites in the entorhinal cortex. Two weeks later, the rats were sacrificed and perfused with a 50 mM sodium sulfide solution. The brains were removed, sectioned in the horizontal plane at a thickness of 40 μm, and stained with either Cresyl violet or Timm'stain. The survival of neurons in layer 2 of entorhinal cortex was assessed in Cresyl violet stained sections, while the integrity of their axon terminals in the molecular layer of the dentate gyrus was measured in alternate sections stained with Timm's stain.\nInjection of NMDA destroyed 62±11% (s.e.m.) of entorhinal layer 2 and decreased the area of the dentate gyrus middle molecular layer by 19±6% (s.e.m.). […] Thus, Compound A protected neurons in the entorhinal cortex from an excitotoxic lesion and maintained the integrity of their axon terminals in the dentate gyrus."}, "[3]": {"tested_on": "acrylamide-induced peripheral neuropathy", "experiment": "Acrylamide-induced peripheral neuropathy, landing foot spread", "type": "in vivo, Sprague-Dawley rats", "details": "0.3 mg/kg/day s.c.; acrylamide 50 mg/kg IP three times/week for three weeks (FIG. 5)", "excerpt": "Acrylamide produces a \"dying back\" central-peripheral distal neuropathy in humans and animals. The lesion is a mixed sensory/motor neuropathy characterized by weakness, tremor and ataxia in humans. In animals, acrylamide produces changes in behavior (sensory, motor and proprioceptive), histopathology, electrophysiology and weight loss. In the periphery, large diameter, long axon, Ab fibers are preferentially affected by acrylamide. In rats, acrylamide administration produces an axonopathy as measured by increased landing foot spread (LFS), a measure of proprioception.\nIt differs from other chemically-induced models (such as chemotherapeutic models) in that the duration is relatively short (3 weeks) and the animals are in relatively good health.\nMale Sprague-Dawley rats weighing 250 grams at the start of the experiment were used. Acrylamide (50 mg/kg, IP) was administered three times/week for three weeks. The animals were dropped from a height of 30 cm and the distance between the hindfeet was recorded (Edwards, P. M. and Parker, V. H. (1977) \"A simple, sensitive, and objective method for early assessment of acrylamide neuropathy in rats.\" Toxicol. Appl Pharmacol, 40:589-591). Compound A (0.1, 0.3 or 1.0 mg/kg, s.c. in 5% solutol) was administered once daily for the duration of the experiment."}, "TNF-α": {"tested_on": "TNF-α", "experiment": "LPS-induced TNF-α in the serum of mice", "type": "in vivo, C57BL mice", "details": "30 mg/kg ip 2 h before LPS", "experimental": "(§1) Sixty female C57BL mice (4-6 weeks old) were divided into six groups, each with 10 animals. Three groups (1,3,5) received vehicle only (PBS containing 0.1% TEA (tetraethyl ammonium hydrochloride)), 200 μl/mouse via intraperitoneal (ip) administration. The other three groups (2,4,6) received Compound A (30 mg/kg in 200 μl, ip) of vehicle (PBS containing 10% of the ethyl ester of 12-hydroxystearic acid; solutol). Two hours later, the animals received by ip administration, 0.1 mg/kg of LPS (groups 1 & 2), 0.5 mg/kg of LPS (groups 3 & 4), and 1.0 mg/kg of LPS (groups 5 % 6). Two hours after LPS administration, all of the animals were sacrificed, and plasma samples were obtained and assayed for their […] and IL-1β content. Assays were carried out as described in Example 8.\n(§2) The numbers in are the group numbers as described above. N indicates the number of animals from which plasma measurements where made. ND=not done."}, "IL-1β": {"tested_on": "IL-1β", "experiment": "LPS-induced IL-1β in the serum of mice", "type": "in vivo, C57BL mice", "details": "LPS dose 1.0 ip; 30 mg/kg ip 2 h before LPS; vehicle 300 ± 87; N = 8", "experimental": "as §1, §2"}, "LPS-induced death": {"tested_on": "LPS-induced death", "experiment": "Prevention of LPS-induced death in mice", "type": "in vivo", "details": "30 mg/kg ip 2 h before LPS (2 mg/mouse)", "experimental": "Forty mice were divided into three groups, two groups consisting of ten mice and one group of twenty mice. Administrations of vehicles, LPS, and Compound A were intraperitoneal. Group 1 (n=10) mice received vehicle (phosphate buffered saline for LPS, 200 μl/mouse) at time zero and vehicle for Compound A (200 μl/mouse) 2 hours later. Group 2 (n=10) mice received the vehicle for Compound A at zero time (200 μl/mouse) and LPS (2 mg in 200 μl/mouse) for two hours later. Group 3 (n=20) received Compound A (30 mg/kg in 200 μl of vehicle) at time zero and LPS (2 mg in 200 μl/mouse) two hours later."}, "monoamine oxidase-B": {"target": "monoamine oxidase-B (Homo sapiens, UniProt P27338)", "sequence (P27338 whole entry)": "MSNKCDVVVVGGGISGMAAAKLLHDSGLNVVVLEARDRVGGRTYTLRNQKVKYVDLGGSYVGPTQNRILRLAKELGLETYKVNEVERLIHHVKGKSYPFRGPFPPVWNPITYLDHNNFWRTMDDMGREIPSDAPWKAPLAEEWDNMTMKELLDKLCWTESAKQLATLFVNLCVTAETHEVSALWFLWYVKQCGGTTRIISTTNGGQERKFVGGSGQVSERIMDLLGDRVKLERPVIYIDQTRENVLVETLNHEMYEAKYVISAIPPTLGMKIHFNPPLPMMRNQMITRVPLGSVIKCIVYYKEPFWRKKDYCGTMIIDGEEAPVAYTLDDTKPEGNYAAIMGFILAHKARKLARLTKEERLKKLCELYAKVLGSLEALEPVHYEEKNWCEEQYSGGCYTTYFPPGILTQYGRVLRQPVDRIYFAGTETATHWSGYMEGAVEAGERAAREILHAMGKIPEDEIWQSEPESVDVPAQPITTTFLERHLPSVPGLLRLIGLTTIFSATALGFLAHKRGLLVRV", "experiment": "Monoamine oxidase-B inhibition in vitro", "details": "FIG. 2"}}}
{"smiles": "CCSCc1ccc2c(c1)c1c3c(c4c5cc(CSCC)ccc5n5c4c1n2C1CC(O)(C(=O)OC)C5(C)O1)CNC3=O", "note": "(centres unmarked) [Compound A]", "values": [{"measurement": "monoamine oxidase-A inhibition", "setting": "monoamine oxidase-A", "value": "not a monoamine oxidase-A inhibitor"}, {"measurement": "glutamic acid decarboxylase-expressing neurons vs vehicle-only animals", "setting": "[1]; mid-nbm or caudal nbm, 0.03 mg/kg s.c. q.o.d.", "value": "No statistically significant differences"}, {"measurement": "glutamic acid decarboxylase-expressing neurons on lesioned side relative to unlesioned side", "setting": "[1]; rostral nbm, 0.03 mg/kg s.c. q.o.d. until 18 days post-lesion, mean, s.e.m., p<0.05 vs vehicle (34 ± 19)", "value": "78 (±16 s.c.m.) percent"}, {"measurement": "decrease in area of dentate gyrus middle molecular layer", "setting": "[2]; NMDA alone 19±6% decrease", "value": "prevented the decrease in area of the middle molecular layer"}, {"measurement": "loss of entorhinal layer 2 neurons", "setting": "[2]; s.e.m., NMDA alone 62±11%", "value": "22±10", "unit": "%"}, {"measurement": "increase in landing foot spread (LFS) produced by acrylamide", "setting": "[3]", "value": "reduced the magnitude of the increase in LFS"}, {"measurement": "TNF-α", "setting": "TNF-α; LPS dose 0.1 ip, vehicle 6129 ± 676, N = 10", "value": "2714 ± 449", "unit": "pg/mL"}, {"measurement": "TNF-α", "setting": "TNF-α; LPS dose 0.5 ip, vehicle 7141 ± 1113, N = 7", "value": "3766 ± 375", "unit": "pg/mL"}, {"measurement": "TNF-α", "setting": "TNF-α; LPS dose 1.0 ip, vehicle 3745 ± 610, N = 9", "value": "2399 ± 1399", "unit": "pg/mL"}, {"measurement": "IL-1β", "setting": "IL-1β", "value": "59 ± 19", "unit": "pg/mL"}, {"measurement": "mortality one week after LPS", "setting": "LPS-induced death", "value": 80, "unit": "%"}, {"measurement": "mortality at 20 hours after LPS", "setting": "LPS-induced death; LPS alone 90% within 20 hours", "value": 25, "unit": "%"}, {"measurement": "mortality at 42 hours after LPS", "setting": "LPS-induced death; LPS alone 100% by 42 hours", "value": 75, "unit": "%"}, {"measurement": "monoamine oxidase-B inhibition", "setting": "monoamine oxidase-B", "value": "not a monoamine oxidase-B inhibitor"}]}
